This is an account of results in patent US20070219146A1, “Synergistic Pharmaceutical And/Or Neutraceutical Flavanoid Composition For Management Of Diabetes Mellitus” (priority 2006, published 2007).

Experiment [1] relates to Alloxan diabetic mice. The experiment can be described thus: Sub acute study (28 days) of Cocoa Flavanoid, blood sugar level in Alloxan diabetic mice. It is filed as in vivo, Swiss Albino mice (Male). The note with it: Glyburide 10 mg/kg; for Summary in percentage (Blood sugar level): reduction versus Normal. As for the experimental part: Swiss Albino mice (Male) in the weight range of 25 to 30 gram were studied for sub acute effect for 28 days. The mice were made diabetic by admnistration of Alloxan. As the mice became diabetic and the blood sugar was above […] they were chosen for the study. 4 groups were made. One group was given 50 mg/kg, 2nd group 100 mg/kg, 3rd group 250 mg/kg and the 4th group positive control glyburide at 10 mg/kg. Treatment was given for 28 days.
A very interesting observation was made that the best effect was produced by the dose of 100 mg/kg body weight. The effect started by 7th day and increased up to 28th day. […] Unlike acute study, the sub acute study has confirmed that 100 mg/kg given the most optimal blood sugar reduction. This effect was sustained after the removal of treatment on 35th day.

In experiment [2] the test system is Alloxan diabetic mice. The experiment can be described thus: Acute study of Cocoa Flavanoid, blood sugar level in Alloxan diabetic mice. It is filed as in vivo, Swiss Albino mice (male). As to conditions: Glyburide 10 mg/kg; for Summary in percentage (Blood sugar level): reduction versus Normal. The protocol: Swiss Albino mice (male) in the weight range 25 to 30 grams were studied for acute affect. They were made diabetic by the admnistration of Alloxan (with admnistration of 70 mg/kg Alloxan and in 48 hours the animals develop diabetes). As the mice became diabetic and the blood sugar was above […], they were grouped into […] of six each. Each group was administered by the test drug at 25 mg/kg, 50 mg/kg 100 mg/kg and 250 mg/kg body weight. One group was administered a positive control drug glyburide at 10 mg/kg of body weight. Blood samples were drawn at 2 hour, 4 hour, 6 hour and 24 hour intervals for all mice. The blood sugar pattern is studied. It has been found out that the best results are obtained for a dose of 50 mg/kg body weight at 2 hours after administration and it increases up to the 6th hour. Good result is obtained for 100 mg/kg drug. […] The effect of 50 mg/kg compared very well with the effect of positive control drug glyburide at 10 mg/kg body weight.
This is an interesting finding that the hypoglycemic effect is best for a dose ranging between 50 mg to 100 mg/kg of body weight.

The structures appear in SMILES notation.

`COc1ccc(Cl)cc1C(=O)NCCc1ccc(S(=O)(=O)NC(=O)NC2CCCCC2)cc1` [Glyburide]: the “Blood sugar level (reading)” value in the experiment with Alloxan diabetic mice [1] (Normal (before treatment)) is 396.09; with Alloxan diabetic mice [1] (day 7), 323.46; in the experiment with Alloxan diabetic mice [1] (day 14), 265.46; with Alloxan diabetic mice [1] (day 21), 170.82; with Alloxan diabetic mice [1] (day 28), 137.90; in the experiment with Alloxan diabetic mice [2] (2 hour) it was 317.50. Also, the “Blood sugar level (reading)” value in the experiment on Alloxan diabetic mice [2] (4 hour) is on record as 266.16; in the experiment on Alloxan diabetic mice [2] (6 hour) it was 149.50; in the experiment with Alloxan diabetic mice [2] (24 hour), 228.66; in the experiment with Alloxan diabetic mice [2] (Normal (before administration)) it was 374.33. The “Summary in percentage (Blood sugar level)” value with Alloxan diabetic mice [1] (day 7) is 18%; in the experiment on Alloxan diabetic mice [1] (day 14), 33%; in the experiment on Alloxan diabetic mice [1] (day 21) it was 57%; with Alloxan diabetic mice [1] (day 28), 65%; with Alloxan diabetic mice [2] (2 hour) it was 15%; in the experiment on Alloxan diabetic mice [2] (4 hour) it was 29%. Further, the “Summary in percentage (Blood sugar level)” value in the experiment on Alloxan diabetic mice [2] (6 hour) worked out at 60%; in the experiment with Alloxan diabetic mice [2] (24 hour), 39%.
